Experimental data from ChEMBL document CHEMBL4387747, “Discovery of naphthacemycins as a novel class of PARP1 inhibitors” (Bioorg Med Chem Lett, 2019).
pIC50: −log10 of the molar value. Activity calls are given as the source filed them. The rule behind the calls is not given here.

Experiments:
[1] = target: T1, Poly [ADP-ribose] polymerase 1 (Homo sapiens, UniProt P09874); assay: Inhibition of recombinant human full length C-terminal His-tagged PARP1 expressed in Sf9 insect cells preincubated for 15 mins followed by NAD+ addition and measured after 40 mins by fluorescence based assay
T1 sequence (P09874 whole entry): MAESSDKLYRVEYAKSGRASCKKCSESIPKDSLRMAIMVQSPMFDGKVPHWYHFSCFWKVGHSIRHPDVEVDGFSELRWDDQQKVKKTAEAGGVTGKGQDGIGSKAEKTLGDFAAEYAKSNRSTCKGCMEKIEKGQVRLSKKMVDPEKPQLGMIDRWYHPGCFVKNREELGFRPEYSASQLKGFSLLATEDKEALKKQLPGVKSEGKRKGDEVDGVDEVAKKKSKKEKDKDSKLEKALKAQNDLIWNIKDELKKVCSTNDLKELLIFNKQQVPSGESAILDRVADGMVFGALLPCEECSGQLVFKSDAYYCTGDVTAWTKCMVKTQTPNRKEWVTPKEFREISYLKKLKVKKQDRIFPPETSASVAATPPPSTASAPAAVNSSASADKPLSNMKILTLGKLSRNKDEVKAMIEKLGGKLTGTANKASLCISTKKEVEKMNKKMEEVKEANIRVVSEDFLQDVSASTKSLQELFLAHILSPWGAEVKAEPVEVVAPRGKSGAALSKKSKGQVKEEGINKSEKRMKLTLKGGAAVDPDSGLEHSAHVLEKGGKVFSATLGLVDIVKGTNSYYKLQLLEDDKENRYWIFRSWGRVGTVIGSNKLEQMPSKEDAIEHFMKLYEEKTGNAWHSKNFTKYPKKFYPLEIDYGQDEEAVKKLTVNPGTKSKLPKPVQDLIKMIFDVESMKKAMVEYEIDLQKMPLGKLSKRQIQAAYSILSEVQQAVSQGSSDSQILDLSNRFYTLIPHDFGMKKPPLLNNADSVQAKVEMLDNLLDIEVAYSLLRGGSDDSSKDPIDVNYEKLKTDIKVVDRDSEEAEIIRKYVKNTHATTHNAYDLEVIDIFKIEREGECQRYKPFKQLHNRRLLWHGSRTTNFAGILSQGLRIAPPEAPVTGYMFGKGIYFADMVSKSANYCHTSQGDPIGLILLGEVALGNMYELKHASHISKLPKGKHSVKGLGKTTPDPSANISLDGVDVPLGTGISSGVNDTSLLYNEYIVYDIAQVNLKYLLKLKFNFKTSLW

MDA-MB-436 [2] = tested on: MDA-MB-436
MDA-MB-231 = assay: cells; settings: Homo sapiens
MCF7 = assay: cells; settings: Homo sapiens
[3] = target: T1, Poly [ADP-ribose] polymerase 1; assay: Inhibition of PARP1 in human MDA-MB-231 cells assessed as increase in gammaH2AX expression level incubated for 24 hrs by Western blot analysis; assay type: cell-based
[4] = target: T1, Poly [ADP-ribose] polymerase 1; assay: Inhibition of PARP1 in MMS treated human MDA-MB-436 cells harboring BRCA1 mutation assessed as increase in PARP1 trapping in chromatin-bound fraction incubated for 4 hrs by Western blot analysis; assay type: cell-based
[5] = target: T1, Poly [ADP-ribose] polymerase 1; assay: Inhibition of PARP1 in human MDA-MB-436 cells harboring BRCA1 mutation assessed as decrease in PAR expression level incubated for 3 hrs by Western blot analysis; assay type: cell-based
MDA-MB-436 [6] = assay: Effect on whole cell PARP1 protein levels in MMS treated human MDA-MB-436 cells harboring BRCA1 mutation at 5 to 45 uM incubated for 4 hrs by Western blot analysis; assay type: functional, cell-based
[7] = target: T1, Poly [ADP-ribose] polymerase 1; assay: Inhibition of PARP1 in human MDA-MB-231 cells assessed as decrease in PAR expression level incubated for 3 hrs by Western blot analysis; assay type: cell-based
[8] = target: T1, Poly [ADP-ribose] polymerase 1; assay: Inhibition of PARP1 in human MDA-MB-436 cells harboring BRCA1 mutation assessed as increase in gammaH2AX expression level incubated for 24 hrs by Western blot analysis; assay type: cell-based

| SMILES | pIC50 [1] | pIC50 (MDA-MB-436 [2]) | pIC50 (MDA-MB-231) | pIC50 (MCF7) | inhibition [3] | inhibition [4] | inhibition [5] | inhibition [7] | inhibition [8] | Activity (MDA-MB-436 [6]) |
| --- | --- | --- | --- | --- | --- | --- | --- | --- | --- | --- |
| COc1cc(O)c(Cl)c(C)c1-c1cc(O)cc2cc3c(c(O)c12)C(=O)c1c(O)cc(O)cc1C3(C)C | 5.31 | 4.98 | < 4.40 | < 4.40 |  |  |  |  |  |  |
| COc1cc(O)c(Cl)c(C)c1-c1cc(O)c(Cl)c2cc3c(c(O)c12)C(=O)c1c(O)c(Cl)c(O)c(Cl)c1C3(C)C | 5.23 | 5.03 | < 4.40 | < 4.40 |  |  |  |  |  |  |
| COc1cc(O)cc(C)c1-c1cc(O)cc2cc3c(c(O)c12)C(=O)c1c(cc(O)c(Cl)c1O)C3(C)C | 4.81 | 4.70 | < 4.40 | < 4.40 |  |  |  |  |  |  |
| COc1cc(O)c(Cl)c(C)c1-c1cc(O)cc2cc3c(c(O)c12)C(=O)c1c(cc(O)c(Cl)c1O)C3(C)C | 5.05 | 5.04 | 4.73 | 4.78 |  |  |  |  |  |  |
| COc1cc(O)c(Cl)c(C)c1-c1cc(O)cc2cc3c(c(O)c12)C(=O)c1c(O)c(Cl)c(O)c(Cl)c1C3(C)C | 6.02 | 5.42 | < 4.40 | < 4.40 | Dose-dependent effect | Dose-dependent effect | Dose-dependent effect | Dose-dependent effect | Dose-dependent effect | inactive |
| COc1cc(O)c(Cl)c(C)c1-c1cc(O)c(Br)c2cc3c(c(O)c12)C(=O)c1c(O)cc(O)cc1C3(C)C | 5.34 | 4.89 | < 4.40 | < 4.40 |  |  |  |  |  |  |

More lines, in order of rising pIC50 (MDA-MB-436 [2]), values ahead:

| pIC50 [1] | pIC50 (MDA-MB-436 [2]) | pIC50 (MDA-MB-231) | pIC50 (MCF7) | inhibition [3] | inhibition [4] | inhibition [5] | inhibition [7] | inhibition [8] | SMILES | Activity (MDA-MB-436 [6]) |
| --- | --- | --- | --- | --- | --- | --- | --- | --- | --- | --- |
| 5.18 | 5.06 | < 4.40 | < 4.40 |  |  |  |  |  | COc1cc(O)c(Cl)c(C)c1-c1cc(O)c(Cl)c2cc3c(c(O)c12)C(=O)c1c(cc(O)c(Cl)c1O)C3(C)C |  |
| 5.74 | 5.31 | < 4.40 | 4.54 |  |  |  |  |  | COc1c(Cl)c(O)c(Cl)c(C)c1-c1cc(O)c(Cl)c2cc3c(c(O)c12)C(=O)c1c(O)c(Cl)c(O)c(Cl)c1C3(C)C |  |
|  | 6.66 | < 4.40 | < 4.40 |  |  |  |  |  | O=C(c1cc(Cc2n[nH]c(=O)c3ccccc23)ccc1F)N1CCN(C(=O)C2CC2)CC1 [OLAPARIB] |  |
